Data on two compounds can be found in patent EP0908457B1, “3-(1,2-benzisothiazol- and isoxazol-5-Y1)-2,4(1H,3H)-pyrimidinedione or thione and 3-(1,2-benzisothiazol- and isoxazol-5-y1)-4(3H)-pyrimidinone or thione herbicidal agents” (BASF AKTIENGESELLSCHAFT, priority 1997, dated 1999).

One series concerns Cyperus iria. Nature of the series: Preemergence weed control under flooded paddy conditions, CYPIR (Rice Flatsedge). Further: meaning of each grade not given here. The series is classed as in vivo. The following applies: flooded paddy, rated three to four weeks after treatment.
The test system of series [1] is Monochoria vaginalis, Presl. Nature of the series: Preemergence weed control under flooded paddy conditions, MOOVA (Monochoria). Further: meaning of each grade not given here. The series is classed as in vivo. As to conditions: flooded paddy, rated three to four weeks after treatment.
In the next series the test system is Sagittaria pygmaea, L. Nature of the series: Preemergence weed control under flooded paddy conditions, SAGPY (Arrowhead (Pygmaea)). Further: meaning of each grade not given here. In kind it is in vivo. The following applies: flooded paddy, rated three to four weeks after treatment.
In series [2] the test system is Oryza sativa, (L.) Tebonnet. The experiment in a line: Rice tolerance to post-transplant applications under flooded paddy conditions (Example 187), ORYSAT (Rice, Tebonnet). The following applies: rated three to four weeks after treatment.
The subject of series [3] is Cyperus serotinus, Rottb. The experiment in a line: Preemergence weed control under flooded paddy conditions, CYPSE (Flatsedge). Further: meaning of each grade not given here. In kind it is in vivo. As to conditions: rated three to four weeks after treatment.
The test system of series [4] is Echinochloa oryzoides (Ard.) Fritsch. The experiment in a line: Preemergence weed control under flooded paddy conditions, ECHORC (Watergrass (Calif.)). Further: meaning of each grade not given here. The series is classed as in vivo. The following applies: flooded paddy, rated three to four weeks after treatment.
Setting [5] is: 0.0313 kg/ha, preemergence weeds.
Setting [6] is: 0.0625 kg/ha, preemergence weeds.
The mark [7] stands for this setting: 0.1250 kg/ha, preemergence weeds.
The mark [8] stands for this setting: 0.2500 kg/ha, preemergence weeds.

On to `CCCCOCc1nsc2ccc(-n3c(=O)cc(C(F)(F)F)n(C)c3=O)cc12` [Example 204, 3-[3-(Butoxymethyl)-1,2-benzisothiazol-5-yl]-1-methyl-6-(trifluoromethyl)-2,4(1H,3H)-pyrimidinedione], for which the “herbicidal effect rating, CYPIR” value with Cyperus iria (setting [5]), in the series with Cyperus iria (setting [6]), in the series on Cyperus iria (setting [7]) and with Cyperus iria (setting [8]) was 9.0 in each case. Further, the “herbicidal effect rating, MOOVA” value in series [1] (setting [5]) turned out to be 0.0; in series [1] (setting [6]) it was 2.0; in series [1] (setting [7]), 4.0; in series [1] (setting [8]), 7.0. Also, the “herbicidal effect rating, SAGPY” value in the series on Sagittaria pygmaea, L. (setting [5]) is reported as 0.0; in the series with Sagittaria pygmaea, L. (setting [6]) it was 0.0; in the series on Sagittaria pygmaea, L. (setting [7]), 0.0; in the series with Sagittaria pygmaea, L. (setting [8]) it was 0.0. For the same compound, the “herbicidal effect rating, ORYSAT (rice tolerance)” value was 3.0 in series [2] (0.0313 kg/ha), 4.0 in series [2] (0.0625 kg/ha), 7.0 in series [2] (0.1250 kg/ha) and 7.0 in series [2] (0.2500 kg/ha). Moreover, the “herbicidal effect rating, CYPSE” value came out at 0.0 in series [3] (setting [5]), 0.0 in series [3] (setting [6]), 2.0 in series [3] (setting [7]) and 7.0 in series [3] (setting [8]). Moreover, the “herbicidal effect rating, ECHORC” value in series [4] (setting [5]) is recorded as 0.0; in series [4] (setting [6]), 2.0; in series [4] (setting [7]), 4.0; in series [4] (setting [8]) it was 9.0.

On to `Cc1ccc(OCC(=O)N(C(C)C)C(C)C)c(-c2nsc3ccc(-n4c(=O)cc(C(F)(F)F)n(C)c4=O)cc23)c1` [Example 61, 3-{3-{6-[(Diisopropylcarbamoyl)methoxy]-m-tolyl}-1,2-benzisothiazol-5-yl}-1-methyl-6-(trifluoromethyl)-2,4(1H,3H)-pyrimidinedione], for which the “herbicidal effect rating, CYPIR” value in the series with Cyperus iria (0.0313 kg/ha, preemergence) was 0.0; with Cyperus iria (0.0625 kg/ha, preemergence), 0.0; in the series with Cyperus iria (0.1250 kg/ha, preemergence), 2.0; in the series on Cyperus iria (0.2500 kg/ha, preemergence) it was 2.0. Also, the “herbicidal effect rating, MOOVA” value in series [1] (0.0313 kg/ha, preemergence) was 8.0; in series [1] (0.0625 kg/ha, preemergence) it was 8.0; in series [1] (0.1250 kg/ha, preemergence) it was 9.0; in series [1] (0.2500 kg/ha, preemergence), 9.0. Further, the “herbicidal effect rating, SAGPY” value with Sagittaria pygmaea, L. (0.0313 kg/ha, preemergence) worked out at 0.0; with Sagittaria pygmaea, L. (0.0625 kg/ha, preemergence) it was 0.0; with Sagittaria pygmaea, L. (0.1250 kg/ha, preemergence) it was 0.0; with Sagittaria pygmaea, L. (0.2500 kg/ha, preemergence) it was 0.0. Further, the “herbicidal effect rating, ORYSAT (rice tolerance)” value in series [2] (0.0313 kg/ha), in series [2] (0.0625 kg/ha), in series [2] (0.1250 kg/ha) and in series [2] (0.2500 kg/ha) was 0.0 each time. In addition, the “herbicidal effect rating, CYPSE” value in series [3] (0.0313 kg/ha, preemergence) amounted to 0.0; in series [3] (0.0625 kg/ha, preemergence), 0.0; in series [3] (0.1250 kg/ha, preemergence) it was 0.0; in series [3] (0.2500 kg/ha, preemergence) it was 0.0. In addition, the “herbicidal effect rating, ECHORC” value in series [4] (0.0313 kg/ha, preemergence) came to 4.0; in series [4] (0.0625 kg/ha, preemergence) it was 7.0; in series [4] (0.1250 kg/ha, preemergence), 8.0; in series [4] (0.2500 kg/ha, preemergence), 8.0.
